# Tests used:
# [1] = test system: Tat peptide (47-57), arginine-rich RNA-binding domain (HIV-1); experiment: EMSA; details: printed 0.78+0.05; same conditions as the oligourea
# [2] = biological target: Tat-derived oligourea (unnatural urea backbone carrying Tat 48-57 side chains) (HIV-1) (UniProt P04608); experiment: EMSA
# [3] = biological target: HIV-1 TAR RNA (wild-type); experiment: Direct and competition electrophoretic mobility assays, oligourea/peptide-TAR RNA complexes; format: binding; details: for Kd: multiple sets of experiments, read-out: KD (equilibrium dissociation constant) for TAR RNA
# Description: (§1) FIG. 2A: Secondary structure of wild-type TAR RNA used in this study. Wild-type TAR RNA spans the minimal sequences that are required for Tat responsiveness in vivo ^14 and for in vitro binding of Tat-derived peptides.^9 Wild-type TAR contains two non-wild-type base pairs to increase transcription by T7 RNA polymerase. Mutant M0 TAR contained no bulge residue in its sequence. In mutant G26C, a base-pair in the upper stem of TAR RNA, G26-C39 was substituted by C26-G39. FIG. 2B: Electrophoretic mobility shift analysis for the Tat-derived oligourea binding to wild-type and trinucleotide bulge mutant (M0) TAR RNA. 5′-end labeled TAR RNAs (40 nM) were heated to 85° C. for three minutes mm and then cooled to room temperature in TK buffer (50 mM Tris-HCl pH 7.4), 20 mM KCl, 0.1% Triton X-100). The oligourea (150 nM) was added to wild-type or mutant TAR and incubated at room temperature for one hour. After adding 30% glycerol, the oligourea-RNA complexes were resolved on a non-denaturing 12% acrylamide gel and visualized by autoradiography or phosphorimaging. FIG. 2C: Specificity of the oligourea-TAR complex formation determined by competition experiments. Oligourea-RNA complexes were formed in the presence of increasing concentrations of unlabeled wild-type or mutant TAR RNAs. Concentrations of the competitor RNAs in lanes 3, 4, 5, 6 were 50, 100, 150, and 200 nM, respectively. Lanes 1 and 2 were marker lanes showing RNA and oligoureaRNA complexes. Oligourea-RNA complexes are labeled as R—P.
# To compare the RNA-binding affinities of the oligourea to natural peptide, we synthesized a tat-derived peptide (Tyr47 to Arg57) containing the RNA-binding domain of Tat protein (FIG. 1). Dissociation constants of the Tat peptide-RNA complexes were determined from multiple sets of experiments under the same conditions used for oligourea-TAR RNA complexes. […] A relative dissociation constant (KREL) can be determined by measuring the ratios of wild-type Tat peptide to the oligourea dissociation constants (KD) for TAR RNA.
# [4] = biological target: T1, proteinase K (Parengyodontium album, UniProt P06873); details: similar proteinase K treatment; cited from earlier work
# [5] = test system: HIV-1 TAR RNA (wild-type); experiment: Specificity of oligourea-TAR complex formation by competition with unlabeled TAR RNAs; format: binding
# Description: as §1
# Specificity of the oligourea-TAR RNA complex formation was addressed by competition experiments (FIG. 2c).
# Two base-pairs immediately above the pyrimidine bulge are critical for Tat recognition.^9 To determine whether the oligourea recognizes specific base-pairs in the stem region of TAR RNA or only a trinucleotide bulge containing RNA, we synthesized a TAR mutant where the G26-C39 base pair was substituted by a C26-G39 base-pair (FIG. 2a).
# [6] = biological target: T1, proteinase K; experiment: Proteinase K digestion of RNA crosslink products (protease stability); format: in vitro ADME; details: 55° C., fifteen minutes after UV irradiation
# Method: FIG. 3. Site-specific photocrosslinking reaction of TAR RNA labeled with 4-thioUracil at position 23 with the oligourea. For photochemical reactions, RNA duplex was prepared by hybridizing two strands.^5,7 Strand 1 of the duplex was 5′-end labeled with 32p Preformed RNA duplexes (40 nM) in the absence or presence of the oligourea (100 nM) were irradiated ([…]) and analyzed by denaturing gels as described earlier.^5,7 Proteinase K digestion was performed at 55° C. for fifteen minutes after LW irradiation. R—R and R—P XL indicate the RNA—RNA and RNA-oligourea crosslink, respectively.
# To probe the oligourea-RNA interactions and determine the proteolysis stability of oligourea, we synthesized TAR RNA containing 4-thioU at position 23 and performed photocrosslinking experiments as described earlier (FIG. 3).^5,7 Irradiation of the oligourea-RNA complex yields a new band with electrophoretic mobility less than that of the RNA (lane 4). Both the oligourea and UV (360 nm) irradiation are required for the formation of this crosslinked RNA-oligourea complex (see lanes 3 and 4). Since the crosslinked oligourea-RNA complex is stable to alkaline pH (9.5), high temperature (85° C.) and denaturing conditions (8M urea, 2% SDS), we conclude that a covalent bond is formed between TAR RNA and the oligourea during the crosslinking reaction.
# [7] = test system: mutant TAR RNA without the bulge residues (M0); experiment: Electrophoretic mobility shift analysis with trinucleotide bulge mutant (M0) TAR RNA; format: binding, HIV-1; details: M0 TAR RNA 40 nM, oligourea 150 nM
# Description: as §1, with “Lanes 1 and 2 were marker lanes showing RNA and oligoureaRNA complexes. Oligourea-RNA complexes are labeled as R—P.” left out
# [8] = test system: Tat transactivation (HIV-1 LTR); experiment: Inhibition of Tat transactivation, CAT activity from integrated HIV-1 LTR of HL3TI cells; format: cell-based; details: luciferase as control
# Method: FIG. 4. […] CAT activity expressed from the integrated HIV-1 LTR of HL3TI Cells with increasing amounts of oligourea is shown. Luciferase activity was a control experiment to monitor the transfection inhibition of pSV2Tat by the addition of oligourea. CAT and Luciferase activities were measured from multiple experiments and normalized to 100%.
# T1 sequence (P06873 106-384): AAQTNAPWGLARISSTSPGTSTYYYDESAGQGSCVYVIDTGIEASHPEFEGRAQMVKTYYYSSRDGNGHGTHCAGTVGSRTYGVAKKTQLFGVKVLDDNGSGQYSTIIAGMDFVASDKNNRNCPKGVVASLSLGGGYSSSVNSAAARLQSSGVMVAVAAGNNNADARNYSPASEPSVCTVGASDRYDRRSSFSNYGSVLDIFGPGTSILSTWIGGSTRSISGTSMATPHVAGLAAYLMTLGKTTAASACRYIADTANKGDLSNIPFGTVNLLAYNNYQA
substance,measurement,setting,value
wild-type TAR RNA,Kd,[1],780 nM
same,Kd,[2],110 nM
Tat peptide (47–57): tat-derived peptide (Tyr47 to Arg57) containing the RNA-binding domain of Tat protein [reference compound],Kd,[3]; wild-type TAR RNA,780 nM
Tat: Tat of the Tat-TAR photocrosslink products from earlier cited work (ref. 5),stability of Tat-TAR photocrosslink products to proteinase K treatment,[4],complete loss of RNA-protein crosslink
GRKKRRQRRR [oligourea],relative dissociation constant KREL (ratio of wild-type Tat peptide KD to oligourea KD for TAR RNA),[3]; wild-type TAR RNA,7.09
same,binding to TAR RNA (mobility shift),"[3]; wild-type TAR RNA 40 nM, oligourea 150 nM",able to bind TAR RNA
same,Kd,[3]; wild-type TAR RNA,110 ± 70 nM
same,competition by mutant TAR (G26C) for oligourea binding to TAR RNA,[5]; competitor G26C TAR RNA (G26-C39 replaced by C26-G39),did not inhibit
same,competition by mutant TAR RNA without a trinucleotide bulge for oligourea binding to wild-type TAR RNA,[5]; competitor M0 TAR RNA 50-200 nM,not able to compete
same,competition by mutant TAR RNA with one base bulge for oligourea binding to wild-type TAR RNA,"[5]; competitor one base bulge TAR RNA, data not shown",not able to compete
same,oligourea-RNA complex formation on addition of unlabeled wild-type TAR RNA,[5]; competitor wild-type TAR RNA 50-200 nM,inhibited
same,stability of RNA crosslink products to proteinase K digestion,[6],completely stable
same,binding to mutant TAR RNA without the bulge residues,[7],failed to bind
same,Tat transactivation (CAT activity) with increasing amounts of oligourea,[8],Inhibition of Tat transactivation

# From patent US7056656B1, “Tat-derived oligourea and its method of production and use in high affinity and specific binding HIV-1 TAR RNA” (priority 1999, dated 2006)
